Measurements reported in BindingDB's records for doi:10.1016/s0960-894x(00)00312-7 (Signal Pharmaceuticals, 2000).

Each compound was assayed against Protein c-Fos/Transcription factor Jun (Homo sapiens, UniProt P05412+P01100) (assay: Inhibition of AP-1 (activator protein-1) mediated transcriptional activation in Jurkat T-cells).
Chain of Protein c-Fos/Transcription factor Jun (P05412 whole entry): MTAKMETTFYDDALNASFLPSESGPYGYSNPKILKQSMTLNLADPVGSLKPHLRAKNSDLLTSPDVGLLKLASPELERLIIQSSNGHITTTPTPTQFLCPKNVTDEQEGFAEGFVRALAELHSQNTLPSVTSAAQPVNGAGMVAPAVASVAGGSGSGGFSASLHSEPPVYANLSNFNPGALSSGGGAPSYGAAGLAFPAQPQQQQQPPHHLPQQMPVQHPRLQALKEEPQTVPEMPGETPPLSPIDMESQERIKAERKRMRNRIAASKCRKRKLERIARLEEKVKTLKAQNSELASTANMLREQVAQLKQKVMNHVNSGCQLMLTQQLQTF
Chain of Protein c-Fos/Transcription factor Jun (P01100 whole entry): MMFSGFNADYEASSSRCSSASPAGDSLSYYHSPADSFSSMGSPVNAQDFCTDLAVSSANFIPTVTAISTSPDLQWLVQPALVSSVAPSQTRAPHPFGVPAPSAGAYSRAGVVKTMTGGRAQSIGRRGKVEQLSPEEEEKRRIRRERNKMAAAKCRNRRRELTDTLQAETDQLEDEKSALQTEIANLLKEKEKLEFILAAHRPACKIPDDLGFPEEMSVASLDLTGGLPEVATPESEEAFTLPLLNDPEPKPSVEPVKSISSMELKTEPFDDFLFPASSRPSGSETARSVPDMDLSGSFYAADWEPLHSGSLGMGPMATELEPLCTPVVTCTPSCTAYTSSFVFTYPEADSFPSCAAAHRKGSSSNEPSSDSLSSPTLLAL

IC50 [nM] | Compound
10000 | CCOC(=O)c1cnc(CC)nc1N(C)N1C(=O)C=C(C)C1=O [ethyl 2-ethyl-4-(methyl(3-methyl-2,5-dioxo-2H-pyrrol-1(5H)-yl)amino)pyrimidine-5-carboxylate]
900 | CCOC(=O)c1cnc(-c2ccc(OC)cc2)nc1NN1C(=O)C=C(C)C1=O [2-(4-Methoxy-phenyl)-4-(3-methyl-2,5-dioxo-2,5-dihydro-pyrrol-1-ylamino)-pyrimidine-5-carboxylic acid ethyl ester]
6000 | CCOC(=O)c1cnc(-c2cnc3ccccc3c2)nc1NN1C(=O)C=C(C)C1=O [ethyl 4-(3-methyl-2,5-dioxo-2H-pyrrol-1(5H)-ylamino)-2-(quinolin-3-yl)pyrimidine-5-carboxylate]
6000 | CCOC(=O)c1cnc(-c2ccncc2)nc1NN1C(=O)C=C(C)C1=O [ethyl 4-(3-methyl-2,5-dioxo-2H-pyrrol-1(5H)-ylamino)-2-(pyridin-4-yl)pyrimidine-5-carboxylate]
10000 | CCOC(=O)c1cnc(C(F)(F)F)nc1NN1C(=O)C(C)=C(C)C1=O [ethyl 4-(3,4-dimethyl-2,5-dioxo-2H-pyrrol-1(5H)-ylamino)-2-(trifluoromethyl)pyrimidine-5-carboxylate]
1000 | CCOC(=O)c1cnc(Sc2ccccc2)nc1NN1C(=O)C=C(C)C1=O [ethyl 4-(3-methyl-2,5-dioxo-2,5-dihydro-1H-pyrrol-1-ylamino)-2-(phenylthio)pyrimidine-5-carboxylate]
2000 | CCOC(=O)c1cnc(-c2ccccc2)nc1N(C)N1C(=O)C=C(C)C1=O [ethyl 4-(methyl(3-methyl-2,5-dioxo-2H-pyrrol-1(5H)-yl)amino)-2-phenylpyrimidine-5-carboxylate]
1000 | CCOC(=O)c1cnc(-c2cccs2)nc1N(C)N1C(=O)C=C(C)C1=O [ethyl 4-(methyl(3-methyl-2,5-dioxo-2H-pyrrol-1(5H)-yl)amino)-2-(thiophen-2-yl)pyrimidine-5-carboxylate]
700 | CCOC(=O)c1cnc(-c2cccc(Br)c2)nc1NN1C(=O)C=C(C)C1=O [2-(3-Bromo-phenyl)-4-(3-methyl-2,5-dioxo-2,5-dihydro-pyrrol-1-ylamino)-pyrimidine-5-carboxylic acid ethyl ester]
10000 | CCOC(=O)c1cnc(C(F)(F)F)nc1NN1C(=O)C=CC1=O [ethyl 4-(2,5-dioxo-2H-pyrrol-1(5H)-ylamino)-2-(trifluoromethyl)pyrimidine-5-carboxylate]
400 | CCOC(=O)c1cnc(-c2ccc(C(F)(F)F)cc2)nc1NN1C(=O)C=C(C)C1=O [4-(3-Methyl-2,5-dioxo-2,5-dihydro-pyrrol-1-ylamino)-2-(4-trifluoromethyl-phenyl)-pyrimidine-5-carboxylic acid ethyl ester]
300 | CC1=CC(=O)N(Nc2nc(-c3cccs3)ncc2-c2nnc(C)o2)C1=O [3-methyl-1-(5-(5-methyl-1,3,4-oxadiazol-2-yl)-2-(thiophen-2-yl)pyrimidin-4-ylamino)-1H-pyrrole-2,5-dione]
200 | CCOC(=O)c1cnc(-c2ccc(C)s2)nc1NN1C(=O)C=C(C)C1=O [4-(3-Methyl-2,5-dioxo-2,5-dihydro-pyrrol-1-ylamino)-2-(5-methyl-thiophen-2-yl)-pyrimidine-5-carboxylic acid ethyl ester]
10000 | CCOC(=O)c1cnc(-n2nc(C)cc2C)nc1NN1C(=O)C=C(C)C1=O [ethyl 2-(3,5-dimethyl-1H-pyrazol-1-yl)-4-(3-methyl-2,5-dioxo-2H-pyrrol-1(5H)-ylamino)pyrimidine-5-carboxylate]
200 | CCOC(=O)c1cnc(SC)nc1NN1C(=O)C=C(C)C1=O [4-(3-Methyl-2,5-dioxo-2,5-dihydro-pyrrol-1-ylamino)-2-methylsulfanyl-pyrimidine-5-carboxylic acid ethyl ester]
2000 | CCOC(=O)c1cnc(-c2cc(Cl)nc(Cl)c2)nc1NN1C(=O)C=C(C)C1=O [ethyl 2-(2,6-dichloropyridin-4-yl)-4-(3-methyl-2,5-dioxo-2H-pyrrol-1(5H)-ylamino)pyrimidine-5-carboxylate]
100 | CCOC(=O)c1cnc(-c2ccsc2)nc1NN1C(=O)C=C(C)C1=O [ethyl 4-(3-methyl-2,5-dioxo-2H-pyrrol-1(5H)-ylamino)-2-(thiophen-3-yl)pyrimidine-5-carboxylate]
20 | CCOC(=O)c1cnc(-c2cccs2)nc1NN1C(=O)C=C(C)C1=O [ethyl 4-(3-methyl-2,5-dioxo-2H-pyrrol-1(5H)-ylamino)-2-(thiophen-2-yl)pyrimidine-5-carboxylate]
300 | CCOC(=O)c1cnc(-c2cc(Cl)cc(Cl)c2)nc1NN1C(=O)C=C(C)C1=O [ethyl 2-(3,5-dichlorophenyl)-4-(3-methyl-2,5-dioxo-2H-pyrrol-1(5H)-ylamino)pyrimidine-5-carboxylate]
3000 | CCOC(=O)c1cnc(-c2ccc(F)cc2)nc1N(C)N1C(=O)C=C(C)C1=O [2-(4-Fluoro-phenyl)-4-[methyl-(3-methyl-2,5-dioxo-2,5-dihydro-pyrrol-1-yl)-amino]-pyrimidine-5-carboxylic acid ethyl ester]

IC50 [nM] | Compound
7000 | CCOC(=O)c1cnc(Cc2ccccc2)nc1NN1C(=O)C=C(C)C1=O [ethyl 2-benzyl-4-(3-methyl-2,5-dioxo-2H-pyrrol-1(5H)-ylamino)pyrimidine-5-carboxylate]
1000 | CCOC(=O)c1cnc(C(F)(F)F)nc1NN1C(=O)C=C(C)C1=O [4-(3-Methyl-2,5-dioxo-2,5-dihydro-pyrrol-1-ylamino)-2-trifluoromethyl-pyrimidine-5-carboxylic acid ethyl ester]
5000 | CCOC(=O)c1cnc(-c2cccc(OC)c2)nc1NN1C(=O)C=C(C)C1=O [ethyl 2-(3-methoxyphenyl)-4-(3-methyl-2,5-dioxo-2H-pyrrol-1(5H)-ylamino)pyrimidine-5-carboxylate]
20000 | CCOC(=O)c1cnc(C(F)(F)F)nc1NN1C(=O)C=C(c2ccccc2)C1=O [4-(2,5-Dioxo-3-phenyl-2,5-dihydro-pyrrol-1-ylamino)-2-trifluoromethyl-pyrimidine-5-carboxylic acid ethyl ester]
10000 | CCOC(=O)c1cnc(S(=O)(=O)c2ccccc2)nc1NN1C(=O)C=C(C)C1=O [2-Benzenesulfonyl-4-(3-methyl-2,5-dioxo-2,5-dihydro-pyrrol-1-ylamino)-pyrimidine-5-carboxylic acid ethyl ester]
8000 | CCOC(=O)c1cnc(-c2csc(C)n2)nc1NN1C(=O)C=C(C)C1=O [4-(3-Methyl-2,5-dioxo-2,5-dihydro-pyrrol-1-ylamino)-2-(2-methyl-thiazol-4-yl)-pyrimidine-5-carboxylic acid ethyl ester]
200 | CC1=CC(=O)N(Nc2nc(-c3cccs3)ncc2C2=NCCO2)C1=O [1-[5-(4,5-Dihydro-oxazol-2-yl)-2-thiophen-2-yl-pyrimidin-4-ylamino]-3-methyl-pyrrole-2,5-dione]
300 | CCOC(=O)c1cnc(-c2ccc(Cl)cc2)nc1NN1C(=O)C=C(C)C1=O [ethyl 2-(4-chlorophenyl)-4-(3-methyl-2,5-dioxo-2H-pyrrol-1(5H)-ylamino)pyrimidine-5-carboxylate]
15000 | CCOC(=O)c1cnc(Oc2ccccc2)nc1NN1C(=O)C=C(C)C1=O [ethyl 4-(3-methyl-2,5-dioxo-2H-pyrrol-1(5H)-ylamino)-2-phenoxypyrimidine-5-carboxylate]
2000 | CCOC(=O)c1cnc(CC2=CCCCC2)nc1NN1C(=O)C=C(C)C1=O [2-Cyclohex-1-enylmethyl-4-(3-methyl-2,5-dioxo-2,5-dihydro-pyrrol-1-ylamino)-pyrimidine-5-carboxylic acid ethyl ester]
100 | CCOC(=O)c1cnc(-c2ccccc2)nc1NN1C(=O)C=C(C)C1=O [4-(3-Methyl-2,5-dioxo-2,5-dihydro-pyrrol-1-ylamino)-2-phenyl-pyrimidine-5-carboxylic acid ethyl ester]
700 | CCOC(=O)c1cnc(C(=O)c2ccco2)nc1NN1C(=O)C=C(C)C1=O [ethyl 2-(furan-2-carbonyl)-4-(3-methyl-2,5-dioxo-2H-pyrrol-1(5H)-ylamino)pyrimidine-5-carboxylate]
1000 | CCOC(=O)c1cnc(C2CC2)nc1NN1C(=O)C=C(C)C1=O [2-Cyclopropyl-4-(3-methyl-2,5-dioxo-2,5-dihydro-pyrrol-1-ylamino)-pyrimidine-5-carboxylic acid ethyl ester]
300 | CCOC(=O)c1cnc(-c2ccc(Cl)s2)nc1NN1C(=O)C=C(C)C1=O [ethyl 2-(5-chlorothiophen-2-yl)-4-(3-methyl-2,5-dioxo-2H-pyrrol-1(5H)-ylamino)pyrimidine-5-carboxylate]
200 | CC1=CC(=O)N(Nc2nc(-c3cccs3)ncc2-c2nc(C)co2)C1=O [3-methyl-1-(5-(4-methyloxazol-2-yl)-2-(thiophen-2-yl)pyrimidin-4-ylamino)-1H-pyrrole-2,5-dione]
16000 | CCOC(=O)c1cnc(C)nc1NN1C(=O)C=C(C)C1=O [2-Methyl-4-(3-methyl-2,5-dioxo-2,5-dihydro-pyrrol-1-ylamino)-pyrimidine-5-carboxylic acid ethyl ester]
1000 | CCOC(=O)c1cnc(C(C)(C)C)nc1NN1C(=O)C=C(C)C1=O [ethyl 2-tert-butyl-4-(3-methyl-2,5-dioxo-2H-pyrrol-1(5H)-ylamino)pyrimidine-5-carboxylate]
10000 | CCOC(=O)c1cnc(CC)nc1NN1C(=O)C=C(C)C1=O [2-Ethyl-4-(3-methyl-2,5-dioxo-2,5-dihydro-pyrrol-1-ylamino)-pyrimidine-5-carboxylic acid ethyl ester]
700 | CCOC(=O)c1cnc(-c2ccc(F)cc2)nc1NN1C(=O)C=C(C)C1=O [ethyl 2-(4-fluorophenyl)-4-(3-methyl-2,5-dioxo-2H-pyrrol-1(5H)-ylamino)pyrimidine-5-carboxylate]
200 | CC1=CC(=O)N(Nc2nc(-c3cccs3)ncc2-c2nnn(C)n2)C1=O [3-methyl-1-(5-(2-methyl-2H-tetrazol-5-yl)-2-(thiophen-2-yl)pyrimidin-4-ylamino)-1H-pyrrole-2,5-dione]
